From ChEMBL document CHEMBL5233215, “Recent developments of chalcones as potential antibacterial agents in medicinal chemistry” (Eur J Med Chem, 2020)
pIC50: −log10 of the molar value. Converted amounts (≈) assume the structure as drawn.

Key:
Staphylococcus aureus [1] = experiment: Antibacterial activity methicillin-resistant Staphylococcus aureus MRSA ST-1745 assessed as inhibition of bacterial growth incubated for 16 to 24 hrs by broth microdilution assay; format: functional; conditions: time 16-24 hrs
Staphylococcus aureus [2] = experiment: Antibacterial activity methicillin-resistant Staphylococcus aureus MRSA ST-2071 assessed as inhibition of bacterial growth incubated for 16 to 24 hrs by broth microdilution assay; format: functional; conditions: time 16-24 hrs
Staphylococcus aureus [3] = experiment: Antibacterial activity methicillin-resistant Staphylococcus aureus MRSA B-10760 assessed as inhibition of bacterial growth incubated for 16 to 24 hrs by broth microdilution assay; format: functional; conditions: time 16-24 hrs
Staphylococcus aureus [4] = experiment: Antibacterial activity methicillin-resistant Staphylococcus aureus MRSA ST-2438 assessed as inhibition of bacterial growth incubated for 16 to 24 hrs by broth microdilution assay; format: functional; conditions: time 16-24 hrs
Staphylococcus aureus [5] = experiment: Antibacterial activity methicillin-resistant Staphylococcus aureus MRSA ST-3151 assessed as inhibition of bacterial growth incubated for 16 to 24 hrs by broth microdilution assay; format: functional; conditions: time 16-24 hrs
Staphylococcus aureus [6] = experiment: Antibacterial activity methicillin-resistant Staphylococcus aureus MRSA ST-5457 assessed as inhibition of bacterial growth incubated for 16 to 24 hrs by broth microdilution assay; format: functional; conditions: time 16-24 hrs
Staphylococcus aureus [7] = experiment: Antibacterial activity methicillin-resistant Staphylococcus aureus MRSA ST-10342 assessed as inhibition of bacterial growth incubated for 16 to 24 hrs by broth microdilution assay; format: functional; conditions: time 16-24 hrs
Staphylococcus aureus [8] = experiment: Antibacterial activity methicillin-resistant Staphylococcus aureus MRSA P-6642 assessed as inhibition of bacterial growth incubated for 16 to 24 hrs by broth microdilution assay; format: functional; conditions: time 16-24 hrs
Staphylococcus aureus [9] = experiment: Antibacterial activity methicillin-resistant Staphylococcus aureus MRSA P-8029 assessed as inhibition of bacterial growth incubated for 16 to 24 hrs by broth microdilution assay; format: functional; conditions: time 16-24 hrs
Staphylococcus aureus [10] = experiment: Antibacterial activity methicillin-resistant Staphylococcus aureus MRSA B-10732 assessed as inhibition of bacterial growth incubated for 16 to 24 hrs by broth microdilution assay; format: functional; conditions: time 16-24 hrs
Staphylococcus aureus [11] = experiment: Antibacterial activity methicillin-resistant Staphylococcus aureus ATCC 44330 assessed as inhibition of bacterial growth after 24 hrs by NCCLS protocol based microdilution method; format: functional
Staphylococcus aureus [12] = experiment: Antibacterial activity methicillin-sensitive Staphylococcus aureus ATCC 25923 assessed as inhibition of bacterial growth after 24 hrs by NCCLS protocol based microdilution method; format: functional
Klebsiella pneumoniae = experiment: Antibacterial activity Klebsiella pneumoniae K4 assessed as inhibition of bacterial growth incubated for 24 hrs by microbroth dilution assay; format: functional
Pseudomonas aeruginosa [13] = experiment: Antibacterial activity Pseudomonas aeruginosa Ps12 assessed as inhibition of bacterial growth incubated for 24 hrs by microbroth dilution assay; format: functional
DNA = experiment: Binding affinity to DNA (unknown origin) assessed as DNA intercalation by measuring amount of methyl green dye replaced from DNA-methyl green complex after 24 hrs by colourimetric assay; format: nucleic-acid assay
[14] = system: Mycolicibacterium smegmatis; experiment: Antimycobacterial activity against Mycobacterium smegmatis ATCC 607 assessed as bacterial growth inhibition incubated for 48 hrs by resazurin dye based assay; format: functional
[15] = system: Mycobacterium tuberculosis; experiment: Antimycobacterial activity against Mycobacterium tuberculosis H37Rv CNCTC My 331/88 assessed as bacterial growth inhibition incubated for 5 days by resazurin dye based assay; format: functional; conditions: H37Rv CNCTC My 331/88, 120 h, time 5 day
Mycobacterium kansasii = experiment: Antimycobacterial activity against Mycobacterium kansasii CNCTC My 235/80 assessed as bacterial growth inhibition incubated for 5 days by resazurin dye based assay; format: functional; conditions: CNCTC My 235/80, 120 h, time 5 day
Staphylococcus aureus [16] = experiment: Antibacterial activity methicillin-sensitive Staphylococcus aureus ATCC 25923 assessed as inhibition of bacterial growth after 24 hrs by microdilution broth method; format: functional
Staphylococcus aureus [17] = experiment: Antibacterial activity methicillin-resistant Staphylococcus aureus ATCC 33591 assessed as inhibition of bacterial growth after 24 hrs by microdilution broth method; format: functional
Staphylococcus aureus [18] = experiment: Antimicrobial activity against Staphylococcus aureus MTCC 1430 assessed as bacterial growth inhibition incubated for 24 hrs by broth micro dilution method; format: functional
Bacillus subtilis [19] = experiment: Antimicrobial activity against Bacillus subtilis MTCC 441 assessed as bacterial growth inhibition incubated for 24 hrs by broth micro dilution method; format: functional
Escherichia coli [20] = experiment: Antimicrobial activity against Escherichia coli MTCC 1573 assessed as bacterial growth inhibition incubated for 24 hrs by broth micro dilution method; format: functional
Pseudomonas aeruginosa [21] = experiment: Antimicrobial activity against Pseudomonas aeruginosa MTCC 424 assessed as bacterial growth inhibition incubated for 24 hrs by broth micro dilution method; format: functional
Bacillus subtilis [22] = experiment: Antibacterial activity Bacillus subtilis assessed as inhibition of bacterial growth after 18 hrs by broth dilution method; format: functional
Bacillus cereus = experiment: Antibacterial activity Bacillus cereus assessed as inhibition of bacterial growth after 18 hrs by broth dilution method; format: functional
[23] = system: Pectobacterium carotovorum; experiment: Antibacterial activity Pectobacterium carotovorum assessed as inhibition of bacterial growth after 18 hrs by broth dilution method; format: functional
Escherichia coli [24] = experiment: Antibacterial activity Escherichia coli assessed as inhibition of bacterial growth after 18 hrs by broth dilution method; format: functional
Staphylococcus aureus [25] = experiment: Antibacterial activity Staphylococcus aureus assessed as inhibition of bacterial growth after 18 hrs by broth dilution method; format: functional
Bacillus anthracis = experiment: Antibacterial activity Bacillus anthracis Sterne 34F2 assessed as inhibition of bacterial growth by CLSI based microbroth dilution assay; format: functional
Escherichia coli [26] = experiment: Antimicrobial activity against Escherichia coli assessed as bacterial growth inhibition incubated for 18 hrs by broth micro dilution method; format: functional
Streptococcus pyogenes [27] = experiment: Antimicrobial activity against Streptococcus pyogenes assessed as bacterial growth inhibition incubated for 18 hrs by broth micro dilution method
Salmonella typhimurium = experiment: Antimicrobial activity against Salmonella typhimurium assessed as bacterial growth inhibition incubated for 18 hrs by broth micro dilution method; format: functional, Salmonella enterica subsp. enterica serovar Typhimurium; conditions: Salmonella enterica
Staphylococcus aureus [28] = experiment: Antimicrobial activity against Staphylococcus aureus assessed as bacterial growth inhibition incubated for 18 hrs by broth micro dilution method; format: functional
Staphylococcus aureus [29] = experiment: Antibacterial activity methicillin-resistant Staphylococcus aureus USA300 assessed as inhibition of bacterial growth by CLSI based microbroth dilution assay; format: functional
Staphylococcus aureus [30] = experiment: Antibacterial activity methicillin-sensitive Staphylococcus aureus ATCC 29213 assessed as inhibition of bacterial growth by CLSI based microbroth dilution assay; format: functional
Streptococcus pyogenes [31] = experiment: Antibacterial activity Streptococcus pyogenes assessed as inhibition of bacterial growth by […] dye based colorimetric method; format: functional
Escherichia coli [32] = experiment: Antibacterial activity Escherichia coli assessed as inhibition of bacterial growth by […] dye based colorimetric method; format: functional
Staphylococcus aureus [33] = experiment: Antibacterial activity Staphylococcus aureus assessed as inhibition of bacterial growth by […] dye based colorimetric method; format: functional
DNA gyrase = DNA gyrase (Staphylococcus aureus, UniProt P0A0K8+P20831); experiment: Inhibition of Staphylococcus aureus DNA gyrase; format: protein-complex assay
Bacillus subtilis [34] = experiment: Antibacterial activity Bacillus subtilis NBRC 3757 assessed as inhibition of bacterial growth after 48 hrs by two fold dilution method; format: functional
Staphylococcus aureus [35] = experiment: Antibacterial activity methicillin-resistant Staphylococcus aureus OM584 assessed as inhibition of bacterial growth by liquid dilution method; format: functional
[36] = system: Staphylococcus epidermidis; experiment: Antibacterial activity Staphylococcus epidermidis NBRC 12993 assessed as inhibition of bacterial growth after 48 hrs by two fold dilution method; format: functional
Staphylococcus aureus [37] = experiment: Antibacterial activity methicillin-resistant Staphylococcus aureus OM481 assessed as inhibition of bacterial growth by liquid dilution method; format: functional
Micrococcus luteus = experiment: Antibacterial activity Micrococcus luteus NBRC 333 assessed as inhibition of bacterial growth after 48 hrs by two fold dilution method; format: functional

DNA gyrase, sequence (P0A0K8 whole entry): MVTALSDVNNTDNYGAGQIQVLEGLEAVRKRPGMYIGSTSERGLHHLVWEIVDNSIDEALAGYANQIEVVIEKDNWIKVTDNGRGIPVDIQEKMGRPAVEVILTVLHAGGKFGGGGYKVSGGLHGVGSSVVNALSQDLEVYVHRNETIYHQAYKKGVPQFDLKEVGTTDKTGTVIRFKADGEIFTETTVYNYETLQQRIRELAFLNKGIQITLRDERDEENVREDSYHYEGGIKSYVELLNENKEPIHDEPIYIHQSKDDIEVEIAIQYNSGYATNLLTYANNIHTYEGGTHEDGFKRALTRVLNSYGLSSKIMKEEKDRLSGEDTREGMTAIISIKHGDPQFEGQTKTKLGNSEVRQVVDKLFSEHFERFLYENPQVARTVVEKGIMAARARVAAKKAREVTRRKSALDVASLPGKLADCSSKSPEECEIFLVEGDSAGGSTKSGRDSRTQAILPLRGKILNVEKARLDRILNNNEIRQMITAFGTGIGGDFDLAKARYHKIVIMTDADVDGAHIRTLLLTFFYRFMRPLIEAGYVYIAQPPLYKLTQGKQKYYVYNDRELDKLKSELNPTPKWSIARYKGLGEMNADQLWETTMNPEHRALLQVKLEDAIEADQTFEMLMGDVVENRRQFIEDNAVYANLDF
DNA gyrase, sequence (P20831 whole entry): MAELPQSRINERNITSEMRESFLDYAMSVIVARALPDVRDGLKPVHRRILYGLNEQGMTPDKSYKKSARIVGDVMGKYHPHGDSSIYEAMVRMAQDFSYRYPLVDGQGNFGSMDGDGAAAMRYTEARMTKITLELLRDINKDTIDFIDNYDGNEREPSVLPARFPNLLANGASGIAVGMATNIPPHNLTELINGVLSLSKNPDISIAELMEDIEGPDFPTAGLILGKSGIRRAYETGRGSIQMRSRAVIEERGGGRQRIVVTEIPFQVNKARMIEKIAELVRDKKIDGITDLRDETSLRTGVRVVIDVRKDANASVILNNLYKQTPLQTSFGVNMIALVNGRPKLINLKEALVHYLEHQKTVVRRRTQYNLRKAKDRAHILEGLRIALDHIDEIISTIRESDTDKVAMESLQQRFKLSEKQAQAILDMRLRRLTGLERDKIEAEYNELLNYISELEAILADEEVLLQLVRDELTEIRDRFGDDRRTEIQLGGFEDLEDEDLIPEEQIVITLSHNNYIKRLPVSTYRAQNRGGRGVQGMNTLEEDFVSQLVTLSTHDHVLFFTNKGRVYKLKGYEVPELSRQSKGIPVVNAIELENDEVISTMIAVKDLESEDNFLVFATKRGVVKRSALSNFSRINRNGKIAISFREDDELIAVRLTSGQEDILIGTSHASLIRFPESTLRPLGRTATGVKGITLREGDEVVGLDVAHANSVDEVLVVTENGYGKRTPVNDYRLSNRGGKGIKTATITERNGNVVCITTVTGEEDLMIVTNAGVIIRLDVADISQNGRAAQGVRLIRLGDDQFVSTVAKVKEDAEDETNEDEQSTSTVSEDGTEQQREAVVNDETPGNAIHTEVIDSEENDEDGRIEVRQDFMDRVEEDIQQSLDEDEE

COc1cc(C(=O)/C=C/c2ccc(O)cc2)ccc1O
MIC (Staphylococcus aureus [1]): 12.5 µg/mL (≈ 46.2 µM) | MIC (Staphylococcus aureus [2]): 12.5 µg/mL (≈ 46.2 µM) | MIC (Staphylococcus aureus [3]): 12.5 µg/mL (≈ 46.2 µM) | MIC (Staphylococcus aureus [4]): 12.5 µg/mL (≈ 46.2 µM) | MIC (Staphylococcus aureus [5]): 12.5 µg/mL (≈ 46.2 µM) | MIC (Staphylococcus aureus [6]): 12.5 µg/mL (≈ 46.2 µM) | MIC (Staphylococcus aureus [7]): 12.5 µg/mL (≈ 46.2 µM) | MIC (Staphylococcus aureus [8]): 12.5 µg/mL (≈ 46.2 µM) | MIC (Staphylococcus aureus [9]): 12.5 µg/mL (≈ 46.2 µM) | MIC (Staphylococcus aureus [10]): 12.5 µg/mL (≈ 46.2 µM)

O=C(/C=C/c1ccccc1O)c1cccs1
MIC (Staphylococcus aureus [11]): 64 µg/mL (≈ 278 µM) | MIC (Staphylococcus aureus [12]): 32 µg/mL (≈ 139 µM)

COc1cc(C(CC(=O)c2ccc(C)cc2)SC(=S)N2CCN(Cc3ccccc3)CC2)cc(OC)c1OC (stereo not given)
MIC (Klebsiella pneumoniae): 64 µg/mL (≈ 113 µM) | MIC (Pseudomonas aeruginosa [13]): 32 µg/mL (≈ 56.7 µM) | IC50 (DNA): 30.97 µg/mL (≈ 54.8 µM)

COc1ccc(C(=O)CC(SC(=S)N2CCOCC2)c2ccc(OC)c(OC)c2)cc1 (stereo not given)
MIC (Klebsiella pneumoniae): 32 µg/mL (≈ 69.3 µM) | MIC (Pseudomonas aeruginosa [13]): 32 µg/mL (≈ 69.3 µM) | IC50 (DNA): 27.48 µg/mL (≈ 59.5 µM)

CC(C)(C)c1cnc(C(=O)/C=C/c2ccccc2Cl)cn1
MIC [14]: 3.9 µg/mL (≈ 13 µM) | MIC [15]: 3.13 µg/mL (≈ 10.4 µM) | MIC (Mycobacterium kansasii): 25 µg/mL (≈ 83.1 µM)

O=C(/C=C/c1ccccc1)c1ccc(O)cc1O [2',4'-DIHYDROXYCHALCONE]
MIC (Staphylococcus aureus [16]): 50 µg/mL (≈ 208 µM) | MIC (Staphylococcus aureus [17]): 100 µg/mL (≈ 416 µM)

CSc1ccc(/C=C/C(=O)c2nnn(-c3c(C)c(C(F)(F)F)cc(Cl)c3Cl)c2C)cc1
MIC (Staphylococcus aureus [18]): 6.25 µg/mL (≈ 12.9 µM) | MIC (Bacillus subtilis [19]): 3.12 µg/mL (≈ 6.42 µM) | MIC (Escherichia coli [20]): 3.12 µg/mL (≈ 6.42 µM) | MIC (Pseudomonas aeruginosa [21]): 12.5 µg/mL (≈ 25.7 µM)

COc1cccc(/C=C/C(=O)c2ccc(O)cc2O)c1OC
MIC (Bacillus subtilis [22]): 125 µg/mL (≈ 416 µM) | MIC (Bacillus cereus): 62.5 µg/mL (≈ 208 µM) | MIC [23]: 125 µg/mL (≈ 416 µM) | MIC (Escherichia coli [24]): 62.5 µg/mL (≈ 208 µM) | MIC (Staphylococcus aureus [25]): 62.5 µg/mL (≈ 208 µM)

COc1ccc(/C=C/C(=O)c2ccc(O)c(C)c2)cc1Br
MIC (Bacillus anthracis): 1.56 µg/mL (≈ 4.49 µM)

Cc1cc(C(=O)/C=C/c2c(C)cn(-c3ccccc3)c2C)c(C)s1
MIC (Escherichia coli [26]): 16 µg/mL (≈ 47.7 µM) | MIC (Streptococcus pyogenes [27]): 32 µg/mL (≈ 95.4 µM) | MIC (Salmonella typhimurium): 16 µg/mL (≈ 47.7 µM) | MIC (Staphylococcus aureus [28]): 32 µg/mL (≈ 95.4 µM)

CC1CCN(c2ccc(/C=C/C(=O)c3ccc(O)cc3O)cc2)CC1
MIC (Bacillus anthracis): 1.56 µg/mL (≈ 4.62 µM) | MIC (Staphylococcus aureus [29]): 3.12 µg/mL (≈ 9.26 µM) | MIC (Staphylococcus aureus [30]): 6.25 µg/mL (≈ 18.5 µM)

O=C(/C=C/c1ccc(O)c(O)c1)c1ccc(-c2ccccc2)cc1
MIC (Staphylococcus aureus [1]): 25 µg/mL (≈ 79 µM) | MIC (Staphylococcus aureus [2]): 25 µg/mL (≈ 79 µM) | MIC (Staphylococcus aureus [3]): 25 µg/mL (≈ 79 µM) | MIC (Staphylococcus aureus [4]): 25 µg/mL (≈ 79 µM) | MIC (Staphylococcus aureus [5]): 25 µg/mL (≈ 79 µM) | MIC (Staphylococcus aureus [6]): 25 µg/mL (≈ 79 µM) | MIC (Staphylococcus aureus [7]): 25 µg/mL (≈ 79 µM) | MIC (Staphylococcus aureus [8]): 25 µg/mL (≈ 79 µM) | MIC (Staphylococcus aureus [9]): 25 µg/mL (≈ 79 µM) | MIC (Staphylococcus aureus [10]): 25 µg/mL (≈ 79 µM)

Cc1c(Cl)ccc2cc(/C=C/C(=O)c3ccc(Br)cc3)c(Cl)nc12
MIC (Streptococcus pyogenes [31]): 125 µg/mL (≈ 297 µM) | MIC (Escherichia coli [32]): 125 µg/mL (≈ 297 µM) | MIC (Staphylococcus aureus [33]): 125 µg/mL (≈ 297 µM) | pIC50 (DNA gyrase): 6.48

CC(C)=CCc1c(O)ccc(C(=O)/C=C/c2ccc(O)cc2)c1O [ISOBAVACHALCONE]
MIC (Bacillus subtilis [34]): 4 µg/mL (≈ 12.3 µM) | MIC (Staphylococcus aureus [35]): 8 µg/mL (≈ 24.7 µM) | MIC [36]: 4 µg/mL (≈ 12.3 µM) | MIC (Staphylococcus aureus [37]): 8 µg/mL (≈ 24.7 µM) | MIC (Micrococcus luteus): 4 µg/mL (≈ 12.3 µM)

Cc1cc(C(=O)/C=C/c2ccc(Cl)cc2)ccc1O
MIC (Bacillus anthracis): 12.5 µg/mL (≈ 45.8 µM)

CC(C)=CCc1cc(C(=O)/C=C/c2ccc(O)cc2)c(O)cc1O [BROUSSOCHALCONE B]
MIC (Bacillus subtilis [34]): 8 µg/mL (≈ 24.7 µM) | MIC [36]: 8 µg/mL (≈ 24.7 µM) | MIC (Micrococcus luteus): 16 µg/mL (≈ 49.3 µM)

CC(C)=CCc1c(O)ccc(C(=O)/C=C/c2ccc(O)c(C)c2)c1O
MIC (Staphylococcus aureus [35]): 8 µg/mL (≈ 23.6 µM) | MIC (Staphylococcus aureus [37]): 16 µg/mL (≈ 47.3 µM)
